We go through 7 molecules from PMC12748989 (Nature Communications, 2025).

One experiment relates to PBMC. The conditions noted are these: 12.5 µM.

Take `CC[C@H](C)[C@H](N)C(=O)N[C@@H](CC(N)=O)C(=O)N[C@@H](CC(C)C)C(=O)N[C@@H](CCCCN)C(=O)N[C@@H](C)C(=O)N[C@@H](CC(C)C)C(=O)N[C@@H](C)C(=O)N[C@@H](C)C(=O)N[C@@H](CCC(N)=O)C(=O)N[C@@H](C)C(=O)N[C@@H](CCCCN)C(=O)N[C@@H](CCCCN)C(=O)N[C@H](C(=O)N[C@@H](CC(C)C)C(N)=O)[C@@H](C)CC` [Q9]: in the experiment on MDA-MB-231 cells, the “Average (percentage cell inhibition), Dmastoparan MDA-MB231 12.5uM” value is recorded as 30.6331%. For the same molecule, the “Average (percentage cell inhibition), Mastoparan PBMC” value in the experiment with PBMC was 2.087%.

On to `CC[C@H](C)[C@H](N)C(=O)N[C@@H](CC(N)=O)C(=O)N[C@@H](CC(C)C)C(=O)N[C@@H](CCCCN)C(=O)N[C@@H](C)C(=O)N[C@@H](CC(C)C)C(=O)N[C@@H](C)C(=O)N[C@@H](C)C(=O)N[C@@H](CC(C)C)C(=O)N[C@@H](CCC(N)=O)C(=O)N[C@@H](CCCCN)C(=O)N[C@@H](CCCCN)C(=O)N[C@H](C(=O)N[C@@H](CC(C)C)C(N)=O)[C@@H](C)CC` [Q10], for which, in the experiment with MDA-MB-231 cells, the “Average (percentage cell inhibition), Dmastoparan MDA-MB231 12.5uM” value came to 6.186%. In addition, the “Average (percentage cell inhibition), Mastoparan PBMC” value with PBMC is reported as 12.3938%.

Consider `CC[C@H](C)[C@H](N)C(=O)N[C@@H](CC(N)=O)C(=O)N[C@@H](CC(C)C)C(=O)N[C@@H](CCCCN)C(=O)N[C@@H](C)C(=O)N[C@@H](CC(C)C)C(=O)N[C@@H](C)C(=O)N[C@@H](C)C(=O)N[C@@H](CC(C)C)C(=O)N[C@@H](C)C(=O)N[C@@H](CCC(N)=O)C(=O)N[C@@H](CCCCN)C(=O)N[C@H](C(=O)N[C@@H](CC(C)C)C(N)=O)[C@@H](C)CC` [Q11], for which the “Average (percentage cell inhibition), Dmastoparan MDA-MB231 12.5uM” value in the experiment on MDA-MB-231 cells is recorded as 41.2471%. Moreover, the “Average (percentage cell inhibition), Mastoparan PBMC” value with PBMC is 14.9552%.

For the molecule `CC[C@H](C)[C@H](N)C(=O)N[C@@H](CC(N)=O)C(=O)N[C@@H](CC(C)C)C(=O)N[C@@H](CCCCN)C(=O)N[C@@H](C)C(=O)N[C@@H](CC(C)C)C(=O)N[C@@H](C)C(=O)N[C@@H](C)C(=O)N[C@@H](CC(C)C)C(=O)N[C@@H](C)C(=O)N[C@@H](CCCCN)C(=O)N[C@@H](CCC(N)=O)C(=O)N[C@H](C(=O)N[C@@H](CC(C)C)C(N)=O)[C@@H](C)CC` [Q12], the “Average (percentage cell inhibition), Dmastoparan MDA-MB231 12.5uM” value in the experiment with MDA-MB-231 cells is given as 35.4495%. Also, the “Average (percentage cell inhibition), Mastoparan PBMC” value in the experiment on PBMC is given as -3.934%.

As to `CC[C@H](C)[C@H](N)C(=O)N[C@@H](CC(N)=O)C(=O)N[C@@H](CC(C)C)C(=O)N[C@@H](CCCCN)C(=O)N[C@@H](C)C(=O)N[C@@H](CC(C)C)C(=O)N[C@@H](C)C(=O)N[C@@H](C)C(=O)N[C@@H](CC(C)C)C(=O)N[C@@H](C)C(=O)N[C@@H](CCCCN)C(=O)N[C@@H](CCCCN)C(=O)N[C@@H](CCC(N)=O)C(=O)N[C@@H](CC(C)C)C(N)=O` [Q13], the “Average (percentage cell inhibition), Dmastoparan MDA-MB231 12.5uM” value with MDA-MB-231 cells was 9.2166%. Moreover, the “Average (percentage cell inhibition), Mastoparan PBMC” value with PBMC is on record as -1.132%.

On to `CC[C@H](C)[C@H](N)C(=O)N[C@@H](CC(N)=O)C(=O)N[C@@H](CC(C)C)C(=O)N[C@@H](CCCCN)C(=O)N[C@@H](C)C(=O)N[C@@H](CC(C)C)C(=O)N[C@@H](C)C(=O)N[C@@H](C)C(=O)N[C@@H](CC(C)C)C(=O)N[C@@H](C)C(=O)N[C@@H](CCCCN)C(=O)N[C@@H](CCCCN)C(=O)N[C@H](C(=O)N[C@@H](CCC(N)=O)C(N)=O)[C@@H](C)CC` [Q14], for which the “Average (percentage cell inhibition), Dmastoparan MDA-MB231 12.5uM” value with MDA-MB-231 cells amounted to 0.3995%. Besides, the “Average (percentage cell inhibition), Mastoparan PBMC” value with PBMC amounted to 1.109%.

As to `CC[C@H](C)[C@H](NC(=O)[C@H](CCCCN)NC(=O)[C@H](CCCCN)NC(=O)[C@H](C)NC(=O)[C@H](CC(C)C)NC(=O)[C@H](C)NC(=O)[C@H](C)NC(=O)[C@H](CC(C)C)NC(=O)[C@H](C)NC(=O)[C@H](CCCCN)NC(=O)[C@H](CC(C)C)NC(=O)[C@H](CC(N)=O)NC(=O)[C@@H](N)CCCNC(=N)N)C(=O)N[C@@H](CC(C)C)C(N)=O` [R1], the “Average (percentage cell inhibition), Dmastoparan MDA-MB231 12.5uM” value in the experiment on MDA-MB-231 cells amounted to 31.3783%. For the same molecule, the “Average (percentage cell inhibition), Mastoparan PBMC” value in the experiment with PBMC is on record as -2.103%.
